The subject of assay [1] is Pseudoperonospora cubensis. Description: Controlling effect on cucumber Downy mildew. The class given is in vivo. Particulars: 168 h, 200 ppm spray, inoculation after 24 hours, read-out: Controlling effect Pc (cucumber downy mildew).
Another assay has as its system Phytophthora infestants. Description: whole plant or invertebrate. The class given is in vivo. Particulars: 168 h; read-out: Controlling effect Pi (tomato late blight).
The test system of a further assay is Botrytis cinerea. Description: Controlling effect (curing effect) on cucumber gray mold. Conditions: 72 h, immersion of inoculated cotyledons, 15° C., read-out: Controlling effect Bc (cucumber gray mold). The class given is in vivo. As to the method: Controlling effect (curing effect) on cucumber gray mold The cotyledons of potted cucumber plants at the 1 leaf stage were cut off and each of them was inoculated with a mycelial tuft of gray mold fungus (Botrytis cinerea) cultured on PSA medium. After having been placed in a moist chamber at 15° C. for 24 hours, the cotyledons were immersed in a 200 ppm liquid chemical containing each compound of the present invention as active ingredient. […]

In the next assay the test system is Pyricularia oryzae. Description: whole plant or invertebrate. The format is in vivo. Particulars: 168 h, read-out: Controlling effect Ps (rice blast).
For another assay, the system named is Trichoderma viride. Description: Inhibition of hypha growth on malt extract agar, Trichoderma viride. Conditions: read-out: Controlling effect (growth inhibition rate) TRV.
In another assay the test system is Alternaria mali. Description: Inhibition of hypha growth on malt extract agar, Alternaria mali. Particulars: read-out: Controlling effect (growth inhibition rate) ALM.
The test system of a further assay is Serpula lacrymans. Description: Inhibition of hypha growth on malt extract agar, Serpula lacrymans. Conditions: read-out: Controlling effect (growth inhibition rate) SEL.
The next assay relates to Tyromyces palustris. Description: Inhibition of hypha growth on malt extract agar, Tyromyces palustris. Particulars: read-out: Controlling effect (growth inhibition rate) TYP.
A further assay has as its system Chaetomium globosum. Description: Inhibition of hypha growth on malt extract agar, Chaetomium globosum. Particulars: read-out: Controlling effect (growth inhibition rate) CHG.
For another assay, the system named is Coriolus versicolor. Description: Inhibition of hypha growth on malt extract agar, Coriolus versicolor. The format is cell-based. Conditions: Trametes versicolor, 28±2° C., 2 to 10 days, read-out: Controlling effect (growth inhibition rate) COV.
A further assay has as its system Rhizopus nigricans. Description: Inhibition of hypha growth on malt extract agar, Rhizopus nigricans. Conditions: Rhizopus stolonifer, read-out: Controlling effect (growth inhibition rate) RHS.
Assay [2] relates to Cladosporium cladosporioides. Description: Inhibition of hypha growth on malt extract agar, Cladosporium cladosporioides. Particulars: read-out: Controlling effect (growth inhibition rate) CLC.
For a further assay, the system named is Fusarium oxysporum. Description: Inhibition of hypha growth on malt extract agar, Fusarium oxysporum. Particulars: read-out: Controlling effect (growth inhibition rate) FUO.
In the next assay the test system is Aspergillus niger. Description: Inhibition of hypha growth on malt extract agar, Aspergillus niger. Conditions: read-out: Controlling effect (growth inhibition rate) ASN.

Experimental for Alternaria mali: (§1) Each preparation to be tested was added to malt extract agar medium to adjust the concentration to 50 ppm, and the resulting mixture was dispensed into Petri dishes. As an inoculum, a prepared mycerial tuft of each test fungus was punched out together with agar by means of a 4-mm-diameter cork borer and inoculated on medium. The incubation temperature was adjusted to 28±2° .C (or 18±2° C. in the case of Selupula lacrymas).
(§2) The diameter of mycerial tuft was measured 2 to 10 days after the inoculation, and the inhibition rate of hypha growth (the following equation) was measured.
(§3) The controlling effect was evaluated according to the following criterion.
Experimental for Chaetomium globosum: as §1, §2, §3
Experimental for Fusarium oxysporum: as §1, §2, §3
Experimental for Rhizopus nigricans: as §1, §2
Experimental for Serpula lacrymans: as §1, §2
Experimental for Trichoderma viride: as §1, §2
Experimental for Tyromyces palustris: as §1, §2

On to `CCOc1nsc(S(=O)(=O)C(C)C)c1C#N` [Compound 38], for which the pest or weed control at 200 ppm in assay [1] fell in the range of 95 to 100%; with Phytophthora infestants it was 95 to 100%; in the assay on Botrytis cinerea, 60 to 79%; in the assay with Pyricularia oryzae, 95 to 100%.
In the case of `CCOc1nsc(S(=O)(=O)CC)c1C#N` [Compound 23], the pest or weed control at 200 ppm is 95 to 100% in [1], 95 to 100% in the assay with Phytophthora infestants, 60 to 79% in the assay with Botrytis cinerea and 95 to 100% in the assay with Pyricularia oryzae.
Turning to `C#CCOc1nsc(S(=O)(=O)CC)c1C#N` [Compound 58], the pest or weed control at 200 ppm in assay [1] was 95 to 100%; in the assay with Phytophthora infestants it was 95 to 100%; with Botrytis cinerea, 0 to 59%; in the assay on Pyricularia oryzae it was 80 to 94%.
`COc1nsc(S(=O)(=O)C(C)C)c1C#N` [Compound 35]: the pest or weed control at 200 ppm lay in the range of 95 to 100% in assay [1], 95 to 100% with Phytophthora infestants, 0 to 59% in the assay on Botrytis cinerea and 95 to 100% with Pyricularia oryzae.
As for `CC(C)Oc1nsc(S(=O)(=O)C(F)F)c1C#N` [Compound 144], the pest or weed control at 200 ppm (in [1]; in the assay with Phytophthora infestants; in the assay with Botrytis cinerea; in the assay with Pyricularia oryzae) was 95 to 100% throughout. The inhibition at 50 ppm with Trichoderma viride, in the assay with Alternaria mali, in the assay with Serpula lacrymans, in the assay with Tyromyces palustris, with Chaetomium globosum and in the assay with Coriolus versicolor was 100% in each case. Also, the inhibition at 50 ppm (with Rhizopus nigricans; in assay [2]; with Fusarium oxysporum; with Aspergillus niger) was 100% in each case.
As for `COc1nsc(S(=O)(=O)c2ccc(C)cc2)c1C#N` [Compound 90, 3-methoxy-4-cyano-5-(4-methylphenyl) sulfonylisothiazole], the pest or weed control at 200 ppm lay within 95 to 100% in assay [1], 95 to 100% in the assay with Phytophthora infestants, 60 to 79% in the assay with Botrytis cinerea and 95 to 100% with Pyricularia oryzae.
On to `C#CCOc1nsc(S(=O)(=O)c2ccccc2)c1C#N` [Compound 104], for which the pest or weed control at 200 ppm is 80 to 94% in [1], 95 to 100% in the assay with Phytophthora infestants, 60 to 79% in the assay with Botrytis cinerea and 95 to 100% with Pyricularia oryzae.
For the compound `CCS(=O)(=O)c1snc(OC(F)F)c1C#N` [Compound 25], the pest or weed control at 200 ppm in assay [1] is 95 to 100%; in the assay on Phytophthora infestants it was 95 to 100%; in the assay with Botrytis cinerea, 60 to 79%; in the assay on Pyricularia oryzae, 80 to 94%.
For the compound `CCC(C)Oc1nsc(S(=O)(=O)C(F)F)c1C#N` (stereo not shown) [Compound 145], the pest or weed control at 200 ppm in [1] was in the range of 95 to 100%; in the assay on Phytophthora infestants, 95 to 100%; in the assay on Botrytis cinerea, 0 to 59%; with Pyricularia oryzae, 95 to 100%.
For `CCOc1nsc(S(=O)(=O)C(F)F)c1C#N` [Compound 141], the pest or weed control at 200 ppm in assay [1] is 95 to 100%; with Phytophthora infestants, 95 to 100%; with Botrytis cinerea it was 80 to 94%; in the assay on Pyricularia oryzae, 95 to 100%.
Regarding `CC(C)S(=O)(=O)c1snc(OC(F)F)c1C#N` [Compound 27], the pest or weed control at 200 ppm in assay [1] was 80 to 94%; in the assay with Phytophthora infestants it was 95 to 100%; with Botrytis cinerea, 0 to 59%; in the assay on Pyricularia oryzae it was 95 to 100%.
For `CCS(=O)(=O)c1snc(OC)c1C#N` [Compound 37], the pest or weed control at 200 ppm in [1] lay in the range of 95 to 100%; in the assay with Phytophthora infestants, 95 to 100%; with Botrytis cinerea, 0 to 59%; with Pyricularia oryzae, 95 to 100%.
With `CCOC(=O)c1ccccc1S(=O)(=O)c1snc(O)c1C#N` [Compound 5], the pest or weed control at 200 ppm in assay [1] fell in the range of 60 to 79%; in the assay with Phytophthora infestants, 80 to 94%; with Botrytis cinerea, 0 to 59%; in the assay with Pyricularia oryzae, 60 to 79%.
`CCCOc1nsc(S(C)(=O)=O)c1C#N` [Compound 43]: the inhibition (in general, the percentage by which the read-out fell short of the control) at 50 ppm in the assay on Trichoderma viride was 85 to 99%; with Alternaria mali, 85 to 99%; with Serpula lacrymans, 100%; in the assay on Tyromyces palustris, 100%; in the assay with Chaetomium globosum, 85 to 99%; in the assay on Coriolus versicolor, 100%. For the same compound, the inhibition at 50 ppm is 100% with Rhizopus nigricans, 100% in [2], 85 to 99% in the assay with Fusarium oxysporum and 85 to 99% in the assay with Aspergillus niger.
With `CCOc1nsc(S(C)(=O)=O)c1C#N` [Compound 21], the pest or weed control at 200 ppm lay within 95 to 100% in assay [1], 95 to 100% in the assay on Phytophthora infestants, 60 to 79% in the assay with Botrytis cinerea and 95 to 100% in the assay on Pyricularia oryzae.
As for `CC(C)(C)S(=O)(=O)c1snc(OC(F)F)c1C#N` [Compound 29], the inhibition at 50 ppm is 100% in the assay on Trichoderma viride; 85 to 99% in the assay with Alternaria mali; 85 to 99% with Serpula lacrymans; 100% in the assay on Tyromyces palustris; 100% with Chaetomium globosum; 100% with Coriolus versicolor. Also, the inhibition at 50 ppm was 100% with Rhizopus nigricans, 85 to 99% in [2], 85 to 99% in the assay with Fusarium oxysporum and 85 to 99% with Aspergillus niger.
As to `C=C(C)COc1nsc([S+](C)[O-])c1C#N` (stereo not shown) [Compound 17], the inhibition at 50 ppm is 100% in the assay with Trichoderma viride; 100% in the assay with Alternaria mali; 100% with Serpula lacrymans; 100% with Tyromyces palustris; 100% in the assay on Chaetomium globosum; 85 to 99% in the assay on Coriolus versicolor. Also, the inhibition at 50 ppm (with Rhizopus nigricans; in assay [2]; with Fusarium oxysporum; with Aspergillus niger) was 100% each time.
As to `CCCCS(=O)(=O)c1snc(OC(C)C)c1C#N` [Compound 52], the pest or weed control at 200 ppm fell in the range of 95 to 100% in assay [1], 95 to 100% in the assay on Phytophthora infestants, 60 to 79% in the assay with Botrytis cinerea and 80 to 94% in the assay with Pyricularia oryzae.
On to `C#CCOc1nsc(S(=O)(=O)c2ccc(Cl)cc2)c1C#N` [Compound 120], for which the pest or weed control at 200 ppm in assay [1] lay within 95 to 100%; with Phytophthora infestants, 95 to 100%; in the assay on Botrytis cinerea, 60 to 79%; in the assay with Pyricularia oryzae, 95 to 100%.
As to `CCOCCOc1nsc(S(C)(=O)=O)c1C#N` [Compound 73], the inhibition at 50 ppm with Trichoderma viride is 85 to 99%; in the assay with Alternaria mali it was 85 to 99%; in the assay on Serpula lacrymans, 100%; in the assay with Tyromyces palustris, 100%; in the assay on Chaetomium globosum, 100%; with Coriolus versicolor, 100%. For the same compound, the inhibition at 50 ppm with Rhizopus nigricans is 100%; in assay [2], 85 to 99%; with Fusarium oxysporum, 100%; with Aspergillus niger, 85 to 99%.
As for `C=CCOc1nsc(S(=O)(=O)c2ccc(C)cc2)c1C#N` [Compound 119], the inhibition at 50 ppm with Trichoderma viride is 100%; in the assay with Alternaria mali, 85 to 99%; in the assay on Serpula lacrymans, 100%; in the assay with Tyromyces palustris it was 85 to 99%; with Chaetomium globosum, 100%; with Coriolus versicolor, 100%. Moreover, the inhibition at 50 ppm with Rhizopus nigricans is 100%; in assay [2] it was 100%; in the assay with Fusarium oxysporum, 85 to 99%; in the assay on Aspergillus niger, 85 to 99%.

The record behind these values is patent US5484934A, “Isothiazole derivatives, a process for production thereof and uses thereof” (Nihon Nohyaku Co., Ltd., priority 1992, dated 1996).
